According to patent US12129312B2, “Peptide compound, application thereof and composition containing same” (priority 2017, dated 2024):
Where two headings read alike, the source gives them in different places. Square brackets hold non-standard residues; d marks the D form. Peptide text beside a SMILES is read from it. * marks the point of attachment. PEG8 = NCCOCCOCCOCCOCCOCCOCCOCCOCCC(=O)O; 2Nal = N[C@@H](Cc1ccc2ccccc2c1)C(=O)O; dNMeY = CN[C@H](Cc1ccc(O)cc1)C(=O)O; Palmitoyl = CCCCCCCCCCCCCCCC(=O)*; Tic = O=C(O)[C@@H]1Cc2ccccc2CN1; NMeL = CN[C@@H](CC(C)C)C(=O)O; NMeS = CN[C@@H](CO)C(=O)O; Thz = O=C(O)[C@@H]1CSCN1; βAla = NCCC(=O)O

Legend:
[1] = Plasma stability, mouse plasma; type: in vitro ADME; conditions: 37° C., 0-4 hours, LC-MS/MS, "Very long" = no significant degradation found in the test (4 hours); for half-life at 500 ng/mL: read-out: Mouse plasma (T1/2 (h)) (converted); for Mouse plasma (T1/2 (h)): 500 ng/mL
Method: (§1) 1. Preparation of 50 mM Phosphate Buffer (50 mM Sodium Phosphate and 70 mM NaCl):
(§2) 5.750 g of Na2HPO4, 1.141 g of NaH2PO4 and 4.095 g of NaCl (Shanghai Titan) were weighed and dissolved in 1000 mL of ultrapure water and the pH was adjusted to 7.4. The prepared phosphate buffer was stored in the refrigerator at 4° C., valid for one week.
(§3) 2. Preparation of Compound Stock Solution:
(§4) 1) 5 mg/mL test compound: 5 mg of compound was weighed and dissolved in 1 mL of DMSO.
(§5) 2) 20 mM control: 2.728 mg of nococaine was dissolved in 0.5 mL of DMSO. 3.878 mg of fenfluramide was dissolved in 0.5 mL of DMSO (Amresco).
(§6) 3. Preparation of Experimental Plasma:
(§7) The frozen plasma (human: Shanghai ChemPartner, Rat, Mouse: Shanghai Xipuer-Beikai, Dog, Monkey: Suzhou Xishan Zhongke) was taken out from the −80° C. refrigerator, immediately placed in a 37° C. water bath, and thawn with gentle shaking. The thawed plasma was poured into a centrifuge tube, and centrifuged at 3000 rpm for 8 minutes. The supernatant was collected for the experiment. The pH of the plasma was measured with a pH meter (METTLER TOLEDO), and only the plasma with a pH between 7.4 and 8 was used for the experiment. The plasma was placed on an ice bath for later use.
(§8) 4. Preparation of the Dosing Solution:
(§9) 1) 125 μg/mL test compound solution: 5 μL of 5 mg/mL test compound (see step 2) was added to 195 μL DMSO; 500 μM control solution: 20 mM control stock solution (see step 2) was added to 195 μL DMSO.
(§10) 2) 0.5% BSA phosphate buffer solution: 0.05 g of BSA was added to 10 mL of phosphate buffer (see step 1).
(§11) 3) 5 μg/mL test compound dosing solution: 40 μL of 125 μg/mL test compound solution was added to 960 μL of 0.5% BSA phosphate buffer solution, shaken and mixed evenly, and the dosing solution was placed in a 37° C. water bath and preheated for 5 minutes.
(§12) 20 μM control dosing solution: 40 μL of 500 μM control solution was added to 960 μL of 0.5% BSA phosphate buffer solution, shaken and mixed evenly, and the dosing solution was placed in a 37° C. water bath and preheated for 5 minutes.
(§13) 5. 10 μL of 5 μg/mL test compound and 20 μM control solution were added to the wells of the 96-well plate set at different time points (0 minute, 1 hour, 2 hours and 4 hours). The number of duplicate samples was 3.
(§14) 6. 500 μL of ACN (IS) containing 5% FA was added to the wells set at 0 minute. 90 μL of plasma was then added thereto, mixed evenly, sealed with the film and stored at 4° C. (the number of duplicates was 3).
(§15) 7. 90 μL of plasma was added to the wells set at 1 hour, 2 hours and 4 hours (the number of replicates was 3), followed by timing (the final concentration of the test compound was 500 ng/mL, and that of the control was 2 μM).
(§16) 9. All samples (0 minutes, 1 hour, 2 hours, and 4 hours) at different time points on the 96-well plate were placed on a shaker (IKA, MTS 2/4) and shaken at 600 rpm for 60 minutes. The samples were then centrifuged for 15 minutes on a centrifuge machine (Thermo Multifuge×3R) at 5594×g.
(§17) 10. 150 μL of the supernatant was taken out from the centrifuged sample and sent to LC-MS/MS for analysis (conventional peptide LC-MS/MS analysis).

[2] = biological target: T1, human Chemokine like receptor 1 (Homo sapiens, UniProt Q99788); assay: Activation of Tango CMKLR1-bla U2OS cells (beta-lactamase FRET reporter); type: cell-based
T1 construct: host or cells: U2OS (Tango CMKLR1-bla U2OS)
T1 sequence (Q99788 1-373): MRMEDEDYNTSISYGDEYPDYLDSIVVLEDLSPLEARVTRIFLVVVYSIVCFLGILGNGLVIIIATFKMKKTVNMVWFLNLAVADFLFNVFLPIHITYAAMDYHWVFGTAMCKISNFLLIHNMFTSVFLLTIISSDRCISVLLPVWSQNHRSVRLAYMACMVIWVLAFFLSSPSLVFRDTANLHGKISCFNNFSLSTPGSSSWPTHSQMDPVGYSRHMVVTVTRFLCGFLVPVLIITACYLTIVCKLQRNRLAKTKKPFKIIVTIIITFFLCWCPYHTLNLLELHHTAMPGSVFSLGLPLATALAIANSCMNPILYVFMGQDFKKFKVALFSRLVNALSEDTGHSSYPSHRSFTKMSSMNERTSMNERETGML
Method in brief: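 Agonist mode in Tango CMKLR1-bla U2OS cells, 10000 cells/well seeded overnight, then 10-point 3-fold compound dilutions from 10 mM DMSO stock applied for 4 h at 37 °C, 5% CO2. Beta-lactamase reporter read with CCF4-AM FRET substrate; peptide (D-Tyr)-Phe-Leu-Pro-(D-Ser)-Gln-Phe-(D-Ala)-Tic-Ser served as positive control.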

[3] = Plasma stability, human plasma; type: in vitro ADME; conditions: 37° C., time points 0 minute, 1, 2 and 4 hours, LC-MS/MS, read-out: Human plasma (T1/2 (h)) (converted)
Method: as §1, §2, §3, §4, §5, §6, §7, §8, §9, §10, §11, §12, §13, §14, §15, §16, §17

[4] = determination by the method of Effect Embodiment 1, read-out: EC50

| half-life at 500 ng/mL [1] | EC50 [2, 4] | half-life at 500 ng/mL [3] | Compound | Mouse plasma (T1/2 (h)) [1] | EC50 [2] |
| --- | --- | --- | --- | --- | --- |
| 11.4 h | 700 pM | 14 h | CCCCCCCCCCCCCCCC(=O)NCCOCCOCCOCCOCCOCCOCCOCCOCCC(=O)NCCC(=O)NCCC(=O)N[C@H](Cc1ccc(O)cc1)C(=O)N[C@@H](Cc1ccccc1)C(=O)N(C)[C@@H](CC(C)C)C(=O)N1CCC[C@H]1C(=O)N[C@H](CO)C(=O)N[C@@H](CCC(N)=O)C(=O)N[C@@H](Cc1ccccc1)C(=O)N[C@H](C)C(=O)N1Cc2ccccc2C[C@H]1C(=O)N[C@@H](CO)C(=O)O [YW-134, Palm-PEG8-βAla-βAla-(D-Tyr)-Phe-(NMe-Leu)-Pro-(D-Ser)-Gln-Phe-(D-Ala)-Tic-Ser-OH] ({Palmitoyl-PEG8-βAla-βAla}-[dY]F[NMeL]P[dS]QF[dA][Tic]S-OH) |  |  |
| 67.1 h | 700 pM | 13.7 h | CCCCCCCCCCCCCCCC(=O)NCCOCCOCCOCCOCCOCCOCCOCCOCCC(=O)NCC(=O)NCC(=O)N[C@H](Cc1ccc(O)cc1)C(=O)N[C@@H](Cc1ccccc1)C(=O)N(C)[C@@H](CC(C)C)C(=O)N1CCC[C@H]1C(=O)N[C@H](CO)C(=O)N[C@@H](CCC(N)=O)C(=O)N[C@@H](Cc1ccccc1)C(=O)N[C@H](C)C(=O)N1Cc2ccccc2C[C@H]1C(=O)N[C@@H](CO)C(=O)O [YW-133, Palm-PEG8-Gly-Gly-(D-Tyr)-Phe-(NMe-Leu)-Pro-(D-Ser)-Gln-Phe-(D-Ala)-Tic-Ser-OH] ({Palmitoyl-PEG8}-GG[dY]F[NMeL]P[dS]QF[dA][Tic]S-OH) |  |  |
|  | 600 pM |  | CN[C@H](Cc1ccc(O)cc1)C(=O)N[C@@H](Cc1ccccc1)C(=O)N(C)[C@@H](CC(C)C)C(=O)N1CSC[C@H]1C(=O)N[C@H](CO)C(=O)N[C@@H](CCC(N)=O)C(=O)N[C@@H](Cc1ccc2ccccc2c1)C(=O)N[C@H](C)C(=O)N1Cc2ccccc2C[C@H]1C(=O)N(C)[C@@H](CO)C(=O)O [YW-125, (D-NMe-Tyr)-Phe-(NMe-Leu)-Thz-(D-Ser)-Gln-2Nal-(D-Ala)-Tic-(NMe-Ser)-OH] (H-[dNMeY]F[NMeL][Thz][dS]Q[2Nal][dA][Tic][NMeS]-OH; N-terminus assumed) | Very long |  |

| Compound | half-life at 500 ng/mL [1] | EC50 [2, 4] | half-life at 500 ng/mL [3] | Mouse plasma (T1/2 (h)) [1] | EC50 [2] |
| --- | --- | --- | --- | --- | --- |
| CC(C)C[C@@H](C(=O)N1CSC[C@H]1C(=O)N[C@H](CO)C(=O)N[C@@H](CCC(N)=O)C(=O)N[C@@H](Cc1ccc2ccccc2c1)C(=O)N[C@H](C)C(=O)N1Cc2ccccc2C[C@H]1C(=O)N[C@@H](CO)C(=O)O)N(C)C(=O)[C@H](Cc1ccccc1)NC(=O)[C@H](N)Cc1ccc(O)cc1 [YW-122, (D-Tyr)-Phe-(NMe-Leu)-Thz-(D-Ser)-Gln-2Nal-(D-Ala)-Tic-Ser-OH] (H-[dY]F[NMeL][Thz][dS]Q[2Nal][dA][Tic]S-OH) |  |  | 79.6 h | Very long | 600 pM |
